Measurements: the NIST ThermoML archive (doi:10.1021/je060271a)
“And” between values parts separate entries of the source, which are not always exact repeats. Identical values can stand only once.

Conditions: Liquid, Vibrating tube method

CCCCCCC(=O)OCC(COC(=O)CCCCCC)(COC(=O)CCCCCC)COC(=O)CCCCCC [pentaerythritol tetraheptanoate]
Conditions	mass density
343.14 K, 22987 kPa	957 kg/m3
343.14 K, 23023 kPa	956.9 kg/m3
343.14 K, 23067 kPa	956.9 kg/m3
343.14 K, 23104 kPa	956.9 kg/m3
343.14 K, 23148 kPa	957 kg/m3
343.14 K, 23186 kPa	957 kg/m3
343.14 K, 23224 kPa	956.9 kg/m3
343.14 K, 23269 kPa	957.1 kg/m3
343.14 K, 23308 kPa	957.1 kg/m3
343.14 K, 23346 kPa	957.1 kg/m3
343.14 K, 23393 kPa	957.2 kg/m3
343.14 K, 23433 kPa	957.2 kg/m3
343.14 K, 23473 kPa	957.2 kg/m3
343.14 K, 23512 kPa	957.2 kg/m3
343.14 K, 23551 kPa	957.3 kg/m3
343.14 K, 23582 kPa	957.3 kg/m3
343.14 K, 23619 kPa	957.3 kg/m3
343.14 K, 23650 kPa	957.2 kg/m3
343.14 K, 23719 kPa	957.3 kg/m3
343.14 K, 23782 kPa	957.3 kg/m3
343.14 K, 23820 kPa	957.3 kg/m3
343.14 K, 23852 kPa	957.4 kg/m3
343.14 K, 23887 kPa	957.4 kg/m3
343.14 K, 23919 kPa	957.4 kg/m3
343.14 K, 23957 kPa	957.4 kg/m3
343.14 K, 23990 kPa	957.4 kg/m3
343.14 K, 24022 kPa	957.6 kg/m3
343.14 K, 24061 kPa	957.7 kg/m3
343.14 K, 24094 kPa	957.5 kg/m3
343.14 K, 24160 kPa	957.5 kg/m3
343.14 K, 24588 kPa	957.9 kg/m3
343.14 K, 24654 kPa	957.9 kg/m3
343.14 K, 24695 kPa	958 kg/m3
343.14 K, 24730 kPa	958.1 kg/m3
343.14 K, 24765 kPa	958 kg/m3
343.14 K, 24806 kPa	958 kg/m3
343.14 K, 24840 kPa	958.1 kg/m3
343.14 K, 25030 kPa	958.1 kg/m3
343.14 K, 25067 kPa	958.2 kg/m3
343.14 K, 25103 kPa	958.2 kg/m3
343.14 K, 25183 kPa	958.1 kg/m3
343.14 K, 25215 kPa	958.2 kg/m3
343.14 K, 25436 kPa	958.5 kg/m3
343.14 K, 25465 kPa	958.5 kg/m3
343.14 K, 25501 kPa	958.5 kg/m3
343.14 K, 26973 kPa	959.4 kg/m3
343.14 K, 27040 kPa	959.4 kg/m3
343.14 K, 27491 kPa	959.6 kg/m3
343.14 K, 27527 kPa	959.7 kg/m3
343.14 K, 27558 kPa	959.9 kg/m3
343.14 K, 27645 kPa	960 kg/m3
343.14 K, 27672 kPa	959.9 kg/m3
343.14 K, 27705 kPa	959.9 kg/m3
343.14 K, 27733 kPa	959.9 kg/m3
343.14 K, 27761 kPa	959.9 kg/m3
343.14 K, 27793 kPa	959.9 kg/m3
343.14 K, 27821 kPa	959.9 kg/m3
343.14 K, 27849 kPa	960 kg/m3
343.14 K, 27937 kPa	960.1 kg/m3
343.14 K, 27971 kPa	960.1 kg/m3
343.14 K, 27998 kPa	960 kg/m3
343.14 K, 28026 kPa	960 kg/m3
343.14 K, 28060 kPa	960 kg/m3
343.14 K, 28670 kPa	960.5 kg/m3
343.14 K, 28700 kPa	960.4 kg/m3
343.14 K, 29403 kPa	960.9 kg/m3
343.14 K, 33157 kPa	963.2 kg/m3
343.14 K, 33197 kPa	963.3 kg/m3
343.14 K, 33238 kPa	963.2 kg/m3
343.14 K, 33290 kPa	963.2 kg/m3
343.14 K, 33322 kPa	963.3 kg/m3
343.14 K, 33371 kPa	963.3 kg/m3
343.14 K, 33412 kPa	963.3 kg/m3
343.14 K, 33461 kPa	963.4 kg/m3
343.14 K, 33503 kPa	963.4 kg/m3
343.14 K, 33545 kPa	963.5 kg/m3
343.14 K, 33586 kPa	963.4 kg/m3
343.14 K, 33637 kPa	963.5 kg/m3
343.14 K, 33678 kPa	963.7 kg/m3
343.14 K, 33906 kPa	963.6 kg/m3
343.15 K, 100.4 kPa	940.6 kg/m3
343.15 K, 100.5 kPa	940.6 kg/m3
343.15 K, 100.7 kPa	940.6 kg/m3
343.15 K, 100.9 kPa	940.6 kg/m3
343.15 K, 102.6 kPa	940.6 kg/m3
343.15 K, 106.3 kPa	940.6 kg/m3
343.15 K, 108.5 kPa	940.6 kg/m3
343.15 K, 111.8 kPa	940.7 kg/m3
343.15 K, 116.3 kPa	940.7 kg/m3
343.15 K, 119.8 kPa	940.6 kg/m3
343.15 K, 124 kPa	940.5 kg/m3
343.15 K, 126.8 kPa	940.6 kg/m3
343.15 K, 129.2 kPa	940.5 kg/m3
343.15 K, 131.6 kPa	940.6 kg/m3
343.15 K, 133.4 kPa	940.7 kg/m3
343.15 K, 134.8 kPa	940.8 kg/m3
343.15 K, 135.3 kPa	940.7 kg/m3
343.15 K, 136.2 kPa	940.6 kg/m3
343.15 K, 136.7 kPa	940.6 kg/m3
343.15 K, 137.7 kPa	940.7 kg/m3
343.15 K, 138.6 kPa	940.7 kg/m3
343.15 K, 139.6 kPa	940.7 kg/m3
343.15 K, 140.5 kPa	940.6 kg/m3
343.15 K, 140.7 kPa	940.8 kg/m3 and 940.7 kg/m3
343.15 K, 140.8 kPa	940.6 kg/m3
343.15 K, 141 kPa	940.7 kg/m3
343.15 K, 141.2 kPa	940.6 kg/m3
343.15 K, 141.5 kPa	940.6 kg/m3
343.15 K, 141.9 kPa	940.7 kg/m3
343.15 K, 142.4 kPa	940.7 kg/m3
343.15 K, 142.9 kPa	940.6 kg/m3
343.15 K, 143.1 kPa	940.6 kg/m3 and 940.7 kg/m3
